# Measured values reported in patent US4216216A, “Aromatic piperazinyl substituted dihydrouracils” (Hoechst Aktiengesellschaft, priority 1977, dated 1980).
# Counter-ions that a name gives are not always drawn.
# Experiments:
# [1] = tested on: 5-Hydroxy-L-tryptophan; assay: Test c: 5-Hydroxy-L-tryptophan antagonism in mice (defecation); type: in vivo; conditions: 5-hydroxy-L-tryptophan 40 mg/kg i.p.
# Method: (§1) For determination of the serotonin-antagonistic activity the following pharmacological tests were used: Test a: (Test according to Konzett and Rossler (Arch. exp. Path. Pharmak. 195 (1940) 71). Domestic albino guinea pigs were anaesthetised with 1.25 g/kg of urethane intraperitoneally (i.p.). Bronchial resistance was recorded in the open thorax by a recorder ("bronchotransducer") manufactured by the firm Ugo Basile (Milan); respiratory frequency was kept constant by artificial respiration at a frequency of 58 strokes/minute, the inflation pressure was 9 cm H2 O column. To induce bronchospasms, 5 to […] of serotonin (as serotonin-creatinine sulphate) were injected into one of the jugular veins every 15 minutes in a volume of 0.1 ml/kg body weight. The test substances were administered in a volume of 1 ml/kg either intravenously within 30 seconds, 2 minutes before generation of the serotonin spasm or intraduodenally or orally by oesphageal tube 15 minutes before the spasm. […] The results are given in Table I. Test b: (Serotonin antagonism in the isolated uterus of rats according to Robert A. Turner: Screening Methods in Pharmacology, Academic Press 1965 (New York and London)) Female Sprague-Dawley rats with a weight of 180 to 240 g were given intraperitoneally 2 mg of Oestromon (Merck, Darmstadt) 24 hours before extraction of the uterus in order to induce oestrus. The organ bath was kept at 22° C. and contained a Tyrode solution having a specific composition. The test substance was added to the bath in aqueous solution with a total volume of 0.1 ml. The serotonin concentration administered was 10^-8 g/ml bath. The ED50 value corresponded to the dose by which a serotonin spasm is inhibited by 50%. Test c: (5-Hydroxy-L-tryptophan antagonism in mice). A single administration of 5-hydroxy-L-tryptophan causes in mice a strong increase in defecation due to the increased biosynthesis of serotonin from exogenically supplied amino acids. This defecation effect can be reduced by serotonin antagonists. The test substances were administered orally 45 minutes before administration of the tryptophan. The tryptophan dose was 40 mg/kg i.p.
# Evaluation was carried out 1 hour after administration of the preparation by measurement of the quantity of faeces produced. A reduction in this quantity by not more than 25% of the control is indicated, according to the result, by 0 or (+), from 25 to 50% by +, from 50 to 75% by ++ and over 75% +++ (see Table I).
# [2] = tested on: serotonin spasm in the isolated uterus of rats; assay: Test b: serotonin antagonism in the isolated uterus of rats; type: cell-based, rats (Sprague-Dawley); conditions: isolated rat uterus; serotonin 10^-8 g/ml bath; 22° C.; read-out: ED50 (the source's name)
# Method: as §1
# [3] = tested on: serotonin spasm (bronchospasm); assay: Test a: inhibition of serotonin-induced bronchospasm (Konzett and Rossler); type: in vivo; conditions: Cavia porcellus, guinea pigs
# Method: as §1
# [4] = tested on: thrombocyte aggregation; assay: Thrombocyte aggregation inhibiting activity (ADP-induced, platelet-rich plasma); type: cell-based, beagle dogs
# Method: Thrombocyte aggregation was induced experimentally in platelet-rich plasm (PRP) of beagle dogs by in vitro administration of adenosine diphosphate (ADP) in a final concentration of 2.5×10^-6 and was measured by means of a universal aggregometer (manufactured by B. Braun/Melsungen). An Eppendorf Photometer recorded the change in the optical density of the plasma.
# The following parameters were determined:
# 1. The angle, α, between the tangent at the starting point of the curve and the horizontal axis,
# 2. The time, Tr, from the start of rotation (aggregation) until complete disaggregation,
# 3. The maximum amplitude (Ma) of the aggregation curve as the difference between starting transmission and maximum transmission.
# [5] = Acute toxicity, rats; conditions: rat, in vivo, iv, mortality within 7 days
# Description: (§2) Table III sets out for some compounds, the toxicity determined in mice and rats after intraperitoneal and intravenous administration over the mortality occurring within 7 days as LD50 or LD50 range.
# [6] = Acute toxicity, mice; conditions: mouse, in vivo, mortality within 7 days
# Description: as §2
# [7] = tested on: thrombocyte aggregation; conditions: background statement; cited from earlier work
# [8] = tested on: serotonin; conditions: background statement; cited from earlier work
# [9] = tested on: rats; conditions: i.v., Speigt and Avery, Drugs 3, 159-203 (1972), 10080 min; cited from earlier work
# [10] = tested on: mice; conditions: i.v., Speigt and Avery, Drugs 3, 159-203 (1972), 10080 min; cited from earlier work
# [11] = pH value of aqueous solution; type: physicochemical; conditions: for pH value of a 0.1% aqueous solution: 0.1% solution
# [12] = 0.25 h, i.d. (intraduodenal), 15 minutes after administration
# [13] = iv, 2 min, i.v., 2 minutes after injection
# [14] = Canis lupus familiaris, final concentration 10^-4 g/ml, read-out: Change of Ma in %
# [15] = po, 0.25 h, p.o., 15 minutes after administration
# [16] = final concentration 3 × 10^-5 g/ml
structure (smiles),measurement,setting,value
CC1NC(=O)N(CCCN2CCN(c3ccccc3)CC2)C(=O)C1C (stereo not shown) [compound 17],Strength of activity (reduction in quantity of faeces),[1]; 10 mg/kg p.o.,+ (from 25 to 50%)
same,Strength of activity (reduction in quantity of faeces),[1]; 20 mg/kg p.o.,++ (from 50 to 75%)
same,IC50,[2],1 to 10 ng/mL
same,ED50,[3]; [12],0.01 to 0.03 mg/kg
same,ED50,[3]; [13],0.001 to 0.003 mg/kg
same,inhibition at 100 µg/mL,[4]; [14],18%
same,"Ma, maximum amplitude of the aggregation curve",[4]; final concentration 10^-4 g/ml,344
same,"Tr, time from start of rotation (aggregation) until complete disaggregation",[4]; final concentration 10^-4 g/ml,2.3 min
same,angle α between the tangent at the starting point of the curve and the horizontal axis,[4]; final concentration 10^-4 g/ml,85.9
same,LD50 at 168 h,[5],25 to 40 mg/kg
same,LD50 at 168 h,[6]; iv,54 mg/kg
CN(C)CCCOC1(Cc2ccccc2)CCCCCC1 [Bencyclane],inhibition of thrombocyte aggregation,[7],inhibiting thrombocyte aggregation
same,serotonin antagonism,[8],weak serotonin antagonism
CC1(C)CC(=O)N(CCCN2CCN(c3ccccc3)CC2)C(=O)N1 [compound 9],IC50,[2],1 to 10 ng/mL
same,ED50,[3]; [12],0.01 to 0.03 mg/kg
same,ED50,[3]; [13],0.003 to 0.01 mg/kg
same,ED50,[3]; [15],0.1 to 0.3 mg/kg
same,inhibition at 30 µg/mL,"[4]; Canis lupus familiaris, final concentration 3 × 10^-5 g/ml, read-out: Change of Ma in %",13%
same,inhibition at 100 µg/mL,[4]; [14],20%
same,inhibition at 10 µg/mL,"[4]; Canis lupus familiaris, final concentration 10^-5 g/ml, read-out: Change of Ma in %",11%
same,"Ma, maximum amplitude of the aggregation curve",[4]; [16],523
same,"Tr, time from start of rotation (aggregation) until complete disaggregation",[4]; [16],4.3 min
same,angle α between the tangent at the starting point of the curve and the horizontal axis,[4]; [16],86.6
same,"Ma, maximum amplitude of the aggregation curve",[4]; final concentration 10^-4 g/ml,483
same,"Tr, time from start of rotation (aggregation) until complete disaggregation",[4]; final concentration 10^-4 g/ml,4.0 min
same,angle α between the tangent at the starting point of the curve and the horizontal axis,[4]; final concentration 10^-4 g/ml,87.0
same,"Ma, maximum amplitude of the aggregation curve",[4]; final concentration 10^-5 g/ml,535
same,"Tr, time from start of rotation (aggregation) until complete disaggregation",[4]; final concentration 10^-5 g/ml,4.6 min
same,angle α between the tangent at the starting point of the curve and the horizontal axis,[4]; final concentration 10^-5 g/ml,86.5
same,LD50 at 168 h,[5]; for the base,60 mg/kg
same,LD50 at 168 h,"[6]; ip, for the base",100 to 300 mg/kg
same,LD50 at 168 h,[6]; iv,83 mg/kg
CC[C@@H](CO)NC(=O)[C@@H]1C=C2c3cccc4c3c(cn4C)C[C@H]2N(C)C1 [methysergide],serotonin antagonism,[8],serotonin-antagonistic activities
"CN1CCC(=C2c3ccccc3CCc3sccc32)CC1 [Pizotyline-HCl, reference compound]",Strength of activity (reduction in quantity of faeces),[1]; 20 mg/kg p.o.,+ (from 25 to 50%)
same,IC50,[2],1 to 10 ng/mL
same,ED50,[3]; [12],0.01 to 0.1 mg/kg
same,ED50,[3]; [13],0.01 to 0.05 mg/kg
same,ED50,[3]; [15],0.5 to 1 mg/kg
same,LD50,[9],17 ± 1.1 mg/kg
same,LD50,[10],43 ± 1.8 mg/kg
CC1(C)CC(=O)N(CCCN2CCN(c3ccc(F)cc3)CC2)C(=O)N1 [compound 11],ED50,[3]; [13],0.01 to 0.03 mg/kg
same,LD50 at 168 h,[6]; ip,100 to 300 mg/kg
"CN(C)CCCOC1(Cc2ccccc2)CCCCCC1 [Fludilate, reference compound]",Change of Ma in %,[4]; final concentration 10^-4 g/ml,-34%
same,"Ma, maximum amplitude of the aggregation curve",[4]; final concentration 10^-4 g/ml,324
same,"Tr, time from start of rotation (aggregation) until complete disaggregation",[4]; final concentration 10^-4 g/ml,2.6 min
same,angle α between the tangent at the starting point of the curve and the horizontal axis,[4]; final concentration 10^-4 g/ml,85.2
CC1(C)CC(=O)N(CCN2CCN(c3ccccc3)CC2)C(=S)N1 [compound 18],Strength of activity (reduction in quantity of faeces),[1]; 10 mg/kg p.o.,++ (from 50 to 75%)
same,Strength of activity (reduction in quantity of faeces),[1]; 20 mg/kg p.o.,++ (from 50 to 75%)
same,IC50,[2],0.1 to 1 ng/mL
same,ED50,[3]; [12],~0.03 mg/kg
same,ED50,[3]; [13],0.001 to 0.003 mg/kg
same,inhibition at 100 µg/mL,[4]; [14],19%
same,"Ma, maximum amplitude of the aggregation curve",[4]; final concentration 10^-4 g/ml,328
same,"Tr, time from start of rotation (aggregation) until complete disaggregation",[4]; final concentration 10^-4 g/ml,3.0 min
same,angle α between the tangent at the starting point of the curve and the horizontal axis,[4]; final concentration 10^-4 g/ml,85.8
same,LD50 at 168 h,[5],66 mg/kg
same,pH value of a 0.1% aqueous solution,[11],about 4.3
same,LD50 at 168 h,[6]; iv,100 to 150 mg/kg
CC1(C)CC(=O)N(CCCN2CCN(c3ccccc3)CC2)C(=S)N1 [compound 16],Strength of activity (reduction in quantity of faeces),[1]; 10 mg/kg p.o.,+ (from 25 to 50%)
same,Strength of activity (reduction in quantity of faeces),[1]; 20 mg/kg p.o.,+ (from 25 to 50%)
same,IC50,[2],1 to 10 ng/mL
same,ED50,[3]; [12],0.3 mg/kg
same,ED50,[3]; [13],0.01 to 0.03 mg/kg
same,ED50,[3]; [15],~0.3 mg/kg
same,inhibition at 100 µg/mL,[4]; [14],42%
same,"Ma, maximum amplitude of the aggregation curve",[4]; final concentration 10^-4 g/ml,315
same,"Tr, time from start of rotation (aggregation) until complete disaggregation",[4]; final concentration 10^-4 g/ml,1.8 min
same,angle α between the tangent at the starting point of the curve and the horizontal axis,[4]; final concentration 10^-4 g/ml,86.3
same,LD50 at 168 h,[6]; ip,200 to 400 mg/kg
same,LD50 at 168 h,[6]; iv,40 to 63 mg/kg
CN1CCC(=C2c3ccccc3CCc3sccc32)CC1 [Pizotyline],serotonin antagonism,[8],serotonin-antagonistic activities
CC1(C)CC(=O)N(CCN2CCN(c3ccccc3)CC2)C(=S)N1 [dihydrochloride hydrate],pH value of a 10% aqueous solution,[11]; 10% aqueous solution,around 1.8
CN1C(=O)N(CCCN2CCN(c3ccccc3)CC2)C(=O)CC1(C)C [compound 26],pH value of a 0.1% aqueous solution,[11],around 3.0
